In brackets after ≈: the same amount, converted by molar mass.
Experiments:
Type in all cases: functional
[1] = tested on: Pseudomonas aeruginosa; experiment: Antimicrobial activity against Pseudomonas aeruginosa ATCC […] after 24 hr by broth dilution method
[2] = tested on: Pseudomonas aeruginosa; experiment: Antimicrobial activity against Pseudomonas aeruginosa ATCC […] at 50 ug/ml after 24 to 48 hr by agar diffusion method; settings: read-out: DIZ
[3] = tested on: Staphylococcus aureus; experiment: Antimicrobial activity against Staphylococcus aureus ATCC 29213 at 50 ug/ml after 24 to 48 hr by agar diffusion method; settings: read-out: DIZ
[4] = tested on: Escherichia coli; experiment: Antimicrobial activity against Escherichia coli ATCC 25922 at 50 ug/ml after 24 to 48 hr by agar diffusion method; settings: read-out: DIZ
[5] = tested on: Escherichia coli; experiment: Antimicrobial activity against Escherichia coli ATCC 25922 after 24 hr by broth dilution method; settings: ATCC 25922, 24 h
[6] = tested on: Bacillus subtilis; experiment: Antimicrobial activity against Bacillus subtilis ATCC […] at 50 ug/ml after 24 to 48 hr by agar diffusion method; settings: read-out: DIZ
[7] = tested on: Staphylococcus aureus; experiment: Antimicrobial activity against Staphylococcus aureus ATCC 29213 after 24 hr by broth dilution method; settings: ATCC 29213, 24 h
[8] = tested on: Bacillus subtilis; experiment: Antimicrobial activity against Bacillus subtilis ATCC […] after 24 hr by broth dilution method
[9] = tested on: Candida albicans; experiment: Antimicrobial activity against Candida albicans ATCC 10231 at 100 ug/ml after 24 to 48 hr by agar diffusion method; settings: read-out: DIZ
[10] = tested on: Pseudomonas aeruginosa; experiment: Antimicrobial activity against Pseudomonas aeruginosa ATCC […] at 100 ug/ml after 24 to 48 hr by agar diffusion method; settings: read-out: DIZ
[11] = tested on: Escherichia coli; experiment: Antimicrobial activity against Escherichia coli ATCC 25922 at 100 ug/ml after 24 to 48 hr by agar diffusion method; settings: read-out: DIZ
[12] = tested on: Bacillus subtilis; experiment: Antimicrobial activity against Bacillus subtilis ATCC […] at 100 ug/ml after 24 to 48 hr by agar diffusion method; settings: read-out: DIZ
[13] = tested on: Staphylococcus aureus; experiment: Antimicrobial activity against Staphylococcus aureus ATCC 29213 at 100 ug/ml after 24 to 48 hr by agar diffusion method; settings: read-out: DIZ
[14] = tested on: Nakaseomyces glabratus; experiment: Antimicrobial activity against Candida glabrata ATCC 10233 at 100 ug/ml after 24 to 48 hr by agar diffusion method; settings: read-out: DIZ
[15] = tested on: Candida albicans; experiment: Antimicrobial activity against Candida albicans ATCC 10231 by broth dilution method
[16] = tested on: Nakaseomyces glabratus; experiment: Antimicrobial activity against Candida glabrata ATCC 10233 by broth dilution method

Row | Compound | MIC [1] | MIC50 [1] | MIC [5] | MIC50 [5] | MIC [7] | MIC50 [7] | MIC [8] | MIC50 [8] | zone of inhibition at 100 µg/mL [9] | zone of inhibition at 100 µg/mL [10] | zone of inhibition at 100 µg/mL [11] | zone of inhibition at 100 µg/mL [12] | zone of inhibition at 100 µg/mL [13] | zone of inhibition at 100 µg/mL [14] | MFC [15] | MIC [15] | MIC50 [15] | MFC [16] | MIC [16] | MIC50 [16] | also measured
1 | CC1(C)S[C@@H]2[C@H](NC(=O)[C@H](N)c3ccc(O)cc3)C(=O)N2[C@H]1C(=O)O [AMOXICILLIN] | 6.25 µg/mL (≈ 17.1 µM) | 3.2 µg/mL (≈ 8.76 µM) | 3.12 µg/mL (≈ 8.54 µM) | 1.6 µg/mL (≈ 4.38 µM) | 3.12 µg/mL (≈ 8.54 µM) | 1.62 µg/mL (≈ 4.43 µM) | 6.25 µg/mL (≈ 17.1 µM) | 3.2 µg/mL (≈ 8.76 µM) |  |  |  |  |  |  |  |  |  |  |  |  | zone of inhibition at 50 µg/mL [2]: 21 mm; zone of inhibition at 50 µg/mL [3]: 30 mm; zone of inhibition at 50 µg/mL [4]: 30 mm; zone of inhibition at 50 µg/mL [6]: 25 mm
2 | CCOc1c(/C=N\NC(=O)c2ccncc2)cccc1CN1CCCC1 | 12.5 µg/mL (≈ 35.5 µM) | 6.4 µg/mL (≈ 18.2 µM) | 6.25 µg/mL (≈ 17.7 µM) | 3.2 µg/mL (≈ 9.08 µM) | 12.5 µg/mL (≈ 35.5 µM) | 6.4 µg/mL (≈ 18.2 µM) | 25 µg/mL (≈ 70.9 µM) | 12.8 µg/mL (≈ 36.3 µM) | 18 mm | 20 mm | 27 mm | 22 mm | 26 mm | 19 mm | 25 µg/mL (≈ 70.9 µM) | 12.5 µg/mL (≈ 35.5 µM) | 6.4 µg/mL (≈ 18.2 µM) | 100 µg/mL (≈ 284 µM) | 12.5 µg/mL (≈ 35.5 µM) | 12.8 µg/mL (≈ 36.3 µM) | 
3 | NYSTATIN |  |  |  |  |  |  |  |  |  |  |  |  |  |  | 12.5 µg/mL | 6.25 µg/mL | 3.2 µg/mL | 25 µg/mL | 12.5 µg/mL | 6.4 µg/mL | 
4 | CCOc1c(/C=N\NC(=O)c2ccncc2)cccc1CN(CC)CC | 25 µg/mL (≈ 70.5 µM) | 12.8 µg/mL (≈ 36.1 µM) | 25 µg/mL (≈ 70.5 µM) | 12.8 µg/mL (≈ 36.1 µM) | 25 µg/mL (≈ 70.5 µM) | 12.8 µg/mL (≈ 36.1 µM) | 25 µg/mL (≈ 70.5 µM) | 12.8 µg/mL (≈ 36.1 µM) | 15 mm | 16 mm | 20 mm | 19 mm | 21 mm | 14 mm | 25 µg/mL (≈ 70.5 µM) | 25 µg/mL (≈ 70.5 µM) | 12.8 µg/mL (≈ 36.1 µM) | 100 µg/mL (≈ 282 µM) | 25 µg/mL (≈ 70.5 µM) | 25.6 µg/mL (≈ 72.2 µM) | 
5 | CCOc1c(/C=N\NC(=O)c2ccncc2)cccc1CN1CCNCC1 | 12.5 µg/mL (≈ 34 µM) | 6.4 µg/mL (≈ 17.4 µM) | 6.25 µg/mL (≈ 17 µM) | 3.2 µg/mL (≈ 8.71 µM) | 3.12 µg/mL (≈ 8.49 µM) | 3.2 µg/mL (≈ 8.71 µM) | 12.5 µg/mL (≈ 34 µM) | 6.4 µg/mL (≈ 17.4 µM) | 24 mm | 23 mm | 33 mm | 27 mm | 34 mm | 23 mm | 25 µg/mL (≈ 68 µM) | 12.5 µg/mL (≈ 34 µM) | 6.4 µg/mL (≈ 17.4 µM) | 50 µg/mL (≈ 136 µM) | 12.5 µg/mL (≈ 34 µM) | 12.8 µg/mL (≈ 34.8 µM) | 
6 | CCOc1c(/C=N\NC(=O)c2ccncc2)cccc1CN1CCCCC1 | 12.5 µg/mL (≈ 34.1 µM) | 6.4 µg/mL (≈ 17.5 µM) | 12.5 µg/mL (≈ 34.1 µM) | 6.4 µg/mL (≈ 17.5 µM) | 12.5 µg/mL (≈ 34.1 µM) | 6.4 µg/mL (≈ 17.5 µM) | 25 µg/mL (≈ 68.2 µM) | 12.8 µg/mL (≈ 34.9 µM) | 16 mm | 20 mm | 25 mm | 23 mm | 25 mm | 16 mm | 100 µg/mL (≈ 273 µM) | 12.5 µg/mL (≈ 34.1 µM) | 12.8 µg/mL (≈ 34.9 µM) | 100 µg/mL (≈ 273 µM) | 12.5 µg/mL (≈ 34.1 µM) | 12.8 µg/mL (≈ 34.9 µM) | 
7 | CCOc1ccccc1/C=N\NC(=O)c1ccncc1 | 25 µg/mL (≈ 92.8 µM) | 12.8 µg/mL (≈ 47.5 µM) | 50 µg/mL (≈ 186 µM) | 25.6 µg/mL (≈ 95.1 µM) | 25 µg/mL (≈ 92.8 µM) | 12.8 µg/mL (≈ 47.5 µM) | 50 µg/mL (≈ 186 µM) | 25.6 µg/mL (≈ 95.1 µM) | 13 mm | 14 mm | 18 mm | 15 mm | 19 mm | 11 mm | 50 µg/mL (≈ 186 µM) | 50 µg/mL (≈ 186 µM) | 25.6 µg/mL (≈ 95.1 µM) | 100 µg/mL (≈ 371 µM) | 25 µg/mL (≈ 92.8 µM) | 25.6 µg/mL (≈ 95.1 µM) | 

Reference: ChEMBL document CHEMBL3046083, “Synthesis, characterization and antimicrobial evaluation of novel derivatives of isoniazid” (2012)
